Measured values reported in article PMC9917184, “Synthesis and Biological Evaluation of Potential Oncoimmunomodulator Agents” (International Journal of Molecular Sciences, 2023).
Where two headings read alike, the source gives them in different places.

Tests used:
membrane PD-L1 = molecular target: T1, membrane PD-L1 (Homo sapiens, UniProt Q9NZQ7); experiment: Membrane PD-L1 relative quantification by flow cytometry in cancer cells co-cultured with Jurkat T cells; type: cell-based; conditions: Jurkat, 24 h; for remaining activity at 100 µM: relative to non-treated co-cultures, read-out: % PDL1 (membrane); for inhibition at 100 µM: HT-29 co-cultured with Jurkat T cells, read-out: membrane PD-L1 inhibition rate
T1 construct: Alexa Fluor® 647 Rabbit monoclonal Anti-PD-L1 (ab215251); endogenous in cells; host or cells: HT-29, MCF-7, A-549 (A17: MCF-7 only; A14: IFN-gamma-stimulated cancer cells co-cultured with Jurkat T cells)
Experimental: (§1) We determined by flow cytometry the effect of these compounds on the expression of membrane PD-L1 in cancer cells when they were co-cultured with immune cells. Thus, interferon γ-stimulated cancer cells were treated for 24 h with the compounds at 100 μM in presence of Jurkat T cells. Then, cells were fixed and treated with anti-PD-L1 conjugated to AlexaFluor®647. We took advantage of the versatility of flow cytometry to simultaneously measure the expression of membrane VEGFR-2 by using anti-VEGFR-2 conjugated to fluorescein.
(§2) To study the effect of the compounds on every biological target in co-cultured cancer cell lines, the compounds were incubated for 24h as described before.
(§3) To detect membrane PD-L1 and VEGFR-2, after the cell treatments, they were collected, fixed with 4% in PBS paraformaldehyde, and stained with FITC Mouse monoclonal Anti-Human VEGFR-2 (ab184903) and Alexa Fluor® 647 Rabbit monoclonal Anti-PD-L1 (ab215251).

PD-L1 = PD-L1 (Homo sapiens, UniProt Q9NZQ7); experiment: Total PD-L1 relative quantification by flow cytometry in cancer cell lines; type: cell-based; design: Alexa Fluor® 647 Rabbit monoclonal Anti-PD-L1 (ab215251); endogenous in cells; host or cells: HT-29; conditions: 24 h, total PD-L1 relative to negative control (DMSO)
Experimental: (§4) The effect of these triazole derivates on c-Myc and PD-L1 was measured in three different cancer cell lines (HT-29, MCF-7, A-549) by flow cytometry. Thus, cells were incubated for 24 h with the corresponding compound at a concentration of 100 μM. Dimethyl sulfoxide (DMSO)-treated cells were used as the negative control, and a PD-L1 inhibitor, BMS-8 [29, 31], was used as a reference control. After permeabilization and fixation, cells were treated with anti-PD-L1 conjugated to AlexaFluor®647 and anti-c-Myc conjugated to fluorescein to determine the amount of both targets related to the negative control. Table 1 show the results in terms of the percentage of the detected target in relation to the negative control. This assay was carried out on cancer cell lines HT-29, MCF-7, and A-549.
(§5) To study the effect of the compounds on every biological target in cancer cell lines, the compounds were used at a 100 µM dose.
(§6) For the assay, 10^5 cells per well were incubated for 24 h with the corresponding dose of the tested compound in a total volume of 500 μL of their growth media.
(§7) To detect total PD-L1 and c-Myc, after the cell treatments, they were collected and fixed with 4% in PBS paraformaldehyde. After fixation, a treatment with 0,5% in PBS Triton™ X-100 was performed, and finally, cells were stained with FITC Mouse monoclonal Anti-c-Myc (ab223913) and Alexa Fluor® 647 Rabbit monoclonal Anti-PD-L1 (ab215251).

A-549 = A-549 cell viability in co-culture with Jurkat T cells (flow cytometry count); type: cell-based, human; conditions: 24 h; for viability at 100 µM: Homo sapiens, A549, A-549/Jurkat T co-culture, IFN-γ stimulated, read-out: percentage of living A-549 cells relative to non-treated co-cultures; for inhibition rate of A-549 cell viability: co-cultured with Jurkat T cells, 100 μM
Experimental: (§8) The effect of the synthesized compounds on tumor cell proliferation in the presence of PD-1-expressing Jurkat T cells was also studied. This assay was carried out, as in the previous experiments, in the HT29, MCF7, and A549 cell lines (see Table 4). Interferon γ-stimulated cancer cells were treated for 24 h with the compounds at 100 μM in presence of Jurkat T cells. Then, cells were counted using flow cytometry. The percentage of living cells relative to non-treated co-cultures (control) was established for both cancer and immune cells in every co-culture.
(§9) To study the effect of the compounds on the cell viability in co-culture with Jurkat T cells or THP-1 cells, 10^5 or 2 × 10^5 of the corresponding cancer cells line per well were seeded and incubated for 24 h, then the medium was changed by one cell culture medium supplemented with IFN-γ (10 ng/mL; human, Invitrogen®) and containing 5 × 10^5 or 10^5 Jurkat T cells or THP-1, respectively, per well and 100 µM of the corresponding compound or DMSO for the […] control. After 24 h/48 h of incubation, supernatants were collected to determine Jurkat T or THP-1 living cells, and on the other hand, corresponding cancer cells were collected with trypsin. Both types of suspension cells were fixed with 4% in PBS paraformaldehyde and counted by flow cytometry.

membrane VEGFR-2 = experiment: Membrane VEGFR-2 relative quantification by flow cytometry in cancer cells co-cultured with Jurkat T cells; type: cell-based, human; conditions: 100 μM, 24 h, relative to non-treated co-cultures
Experimental: as §1, §2, §3

HT-29 = HT-29 cell viability in co-culture with Jurkat T cells (flow cytometry count); type: cell-based, human; conditions: 24 h; for viability at 100 µM: Homo sapiens, HT-29/Jurkat T co-culture, IFN-γ stimulated, read-out: percentage of living HT-29 cells relative to non-treated co-cultures
Experimental: as §8, §9

c-Myc = experiment: Total c-Myc relative quantification by flow cytometry in cancer cell lines; type: cell-based, human; conditions: 24 h
Experimental: as §4, §5, §6, §7

MCF-7 = MCF-7 cell viability in co-culture with Jurkat T cells (flow cytometry count); type: cell-based, human; conditions: 24 h; for viability at 100 µM: Homo sapiens, MCF7, MCF-7/Jurkat T co-culture, IFN-γ stimulated, read-out: percentage of living MCF-7 cells relative to non-treated co-cultures; for inhibition rate of MCF-7 cell viability: co-cultured with Jurkat T cells, 100 μM
Experimental: as §8, §9

Jurkat T cells = experiment: Jurkat T cell viability in co-culture with cancer cells (flow cytometry count); type: cell-based; conditions: Homo sapiens, 24 h, read-out: percentage of living Jurkat cells relative to non-treated co-cultures
Experimental: as §8, §9

[1] = A549 co-cultured with Jurkat T cells
[2] = HT29 co-cultured with Jurkat T cells
[3] = MCF7 co-cultured with Jurkat T cells
[4] = A-549, 100 µM, relative to negative control (DMSO)
[5] = HT-29, 100 µM, detected target relative to negative control (DMSO)
[6] = MCF-7, 100 µM, relative to negative control (DMSO)

PD-L1, sequence (Q9NZQ7 19-290): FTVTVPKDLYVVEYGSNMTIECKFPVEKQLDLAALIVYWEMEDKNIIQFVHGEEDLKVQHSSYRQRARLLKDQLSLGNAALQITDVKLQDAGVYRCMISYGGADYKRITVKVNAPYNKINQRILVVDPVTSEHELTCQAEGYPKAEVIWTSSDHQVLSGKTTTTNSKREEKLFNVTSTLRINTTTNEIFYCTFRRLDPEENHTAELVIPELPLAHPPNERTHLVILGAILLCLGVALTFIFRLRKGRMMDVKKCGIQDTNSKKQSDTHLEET
T1 sequence (Q9NZQ7 19-290): as above

Compound | remaining activity at 100 µM (membrane PD-L1; [1]) [%] | remaining activity at 100 µM (membrane PD-L1; [2]) [%] | remaining activity at 100 µM (membrane PD-L1; [3]) [%] | remaining activity at 100 µM (PD-L1; A549, A-549, 100 µM) [%] | remaining activity at 100 µM (PD-L1; HT-29, 100 µM) [%] | remaining activity at 100 µM (PD-L1; MCF7, MCF-7, 100 µM) [%] | viability at 100 µM (A-549) [%] | %VEGFR2 (membrane) (membrane VEGFR-2; [1]) [%] | %VEGFR2 (membrane) (membrane VEGFR-2; [2]) [%] | %VEGFR2 (membrane) (membrane VEGFR-2; [3]) [%] | viability at 100 µM (HT-29) [%] | % c-Myc (c-Myc; [4]) [%] | % c-Myc (c-Myc; [5]) [%] | % c-Myc (c-Myc; [6]) [%] | viability at 100 µM (MCF-7) [%] | viability at 100 µM (Jurkat T cells; A-549/Jurkat T co-culture) [%] | viability at 100 µM (Jurkat T cells; HT-29/Jurkat T co-culture) [%] | viability at 100 µM (Jurkat T cells; MCF-7/Jurkat T co-culture) [%] | inhibition at 100 µM (membrane PD-L1) [%] | inhibition rate of A-549 cell viability (A-549) | other results
COc1ccc(C(OCCc2ccc(CCn3cc(-c4cccc(OC)c4)nn3)cc2)(c2ccccc2)c2ccc(OC)cc2)cc1 [Compound 11, 1-(4-(2-(bis(4-methoxyphenyl)(phenyl)methoxy)ethyl)phenethyl)-4-(3-methoxyphenyl)-1H-1,2,3-triazole] | 94 ± 1 | 104 ± 14 | 48 ± 7 | 104 ± 1 | 48 ± 4 | 108 ± 7 | 102 ± 4 | 85 ± 1 | 79 ± 10 | 92 ± 10 | 65 ± 6 | 55 ± 4 | 50 ± 3 | 81 ± 2 | 50 ± 1 | 511 ± 86 | 76 ± 52 | 79 ± 13 |  |  | c-Myc inhibition (c-Myc; HT-29, 100 μM): 50%; inhibition rate of MCF-7 cell viability (MCF-7): half
OCCc1ccc(CCn2cc(-c3ccccc3Br)nn2)cc1 [Compound 8, 2-(4-(2-(4-(2-bromophenyl)-1H-1,2,3-triazol-1-yl)ethyl)phenyl)ethan-1-ol] | 84 ± 8 | 58 ± 6 | 46 ± 9 | 44 ± 8 | 115 ± 5 | 81 ± 1 | 72 ± 9 | 104 ± 5 | 97 ± 4 | 108 ± 6 | 97 ± 10 | 48 ± 7 | 88 ± 2 | 92 ± 6 | 49 ± 10 | 88 ± 34 | 95 ± 5 | 164 ± 9 | 40 to 50 | around 30% | 
COc1ccccc1-c1cn(CCc2ccc(CCO)cc2)nn1 [Compound 14, 2-(4-(2-(4-(2-methoxyphenyl)-1H-1,2,3-triazol-1-yl)ethyl)phenyl)ethan-1-ol] | 85 ± 3 | 61 ± 3 | 80 ± 5 | 54 ± 7 | 138 ± 2 | 71 | 78 ± 9 | 106 ± 1 | 97 ± 6 | 91 ± 6 | 67 ± 10 | 85 ± 10 | 67 ± 4 | 71 ± 5 | 47 ± 1 | 109 ± 20 | 106 ± 9 | 127 ± 6 | 40 to 50 | around 30% | inhibition rate of MCF-7 cell viability (MCF-7): around 60%
OCCc1ccc(CCn2cc(-c3cccc(Br)c3)nn2)cc1 [Compound 6, 2-(4-(2-(4-(3-bromophenyl)-1H-1,2,3-triazol-1-yl)ethyl)phenyl)ethan-1-ol] | 75 ± 1 | 63 ± 6 | 66 ± 11 | 62 ± 4 | 104 ± 6 | 110 ± 4 | 75 ± 3 | 87 ± 7 | 98 ± 2 | 98 ± 6 | 104 ± 4 | 84 ± 9 | 149 ± 12 | 81 ± 6 | 65 ± 8 | 119 ± 6 | 116 ± 7 | 119 ± 1 | 40 to 50 | around 30% | 
COc1cccc(-c2cn(CCc3ccc(CCO)cc3)nn2)c1 [Compound 12, 2-(4-(2-(4-(3-methoxyphenyl)-1H-1,2,3-triazol-1-yl)ethyl)phenyl)ethan-1-ol] | 77 ± 3 | 88 ± 5 | 41 ± 2 | 67 ± 8 | 157 ± 6 | 88 ± 1 | 86 ± 2 | 99 ± 6 | 113 ± 4 | 103 ± 8 | 60 ± 3 | 113 ± 9 | 84 ± 2 | 81 ± 4 | 78 ± 4 | 83 ± 6 | 104 ± 5 | 123 ± 11 |  | around 30% | inhibition rate of HT-29 cell viability (HT-29; co-cultured with Jurkat T cells, 100 μM): around 40%
OCCc1ccc(CCn2cc(-c3ccccc3)nn2)cc1 [Compound 2, 2-(4-(2-(4-phenyl-1H-1,2,3-triazol-1-yl)ethyl)phenyl)ethan-1-ol] | 60 ± 6 | 124 ± 34 | 82 ± 6 | 76 ± 2 | 82 ± 6 | 115 ± 7 | 123 ± 25 | 90 ± 10 | 101 ± 11 | 86 ± 2 | 79 ± 20 | 79 ± 10 | 115 ± 8 | 122 ± 13 | 80 ± 6 | 89 ± 17 | 107 ± 4 | 87 ± 22 |  |  | 
